Consider twelve compounds from PMC7531004, “Discovery of gramicidin A analogues with altered activities by multidimensional screening of a one-bead-one-compound library” (Nature Communications, 2020).

Where a SMILES comes first, the peptide text is derived from it. [ ]: non-standard residue; d: D form. The star is where a group is joined. NHCH2CH2OH = OCCN*; For = O=C*

Series [1] deals with P388 mouse leukemia cells. The conditions noted are these: 92 h. Put shortly:
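P388 cells at 1 × 10^4 cells/mL (final) were exposed to library peptides (stocks diluted 250-fold in RPMI1640/10% FBS) for 92 h at 37 °C, 5% CO2. Viable cells were counted by WST-1/1-methoxy PMS (4 h), absorbance 415 nm, and expressed as cell viability (%).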

Series [2] has as its system Streptococcus pyogenes SSI-9. Kind of series: Antibacterial activity assay of bead-derived peptides (three concentrations). In kind it is cell-based. The arrangement: key: +++: inhibition by the 640-fold diluted peptide solution; ++: inhibition by the 160-fold diluted solution; +: inhibition by the 40-fold diluted solution; -: no inhibition. The conditions noted are these: S. pyogenes, bead-derived peptide solution, three concentrations. Put shortly: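 Library peptide stock applied undiluted, 4-fold and 16-fold diluted in DMSO to S. pyogenes SSI-9 (2 × 10^5 CFU) in cation-adjusted Mueller Hinton broth with 5% laked horse blood. After 18 h at 37 °C, growth judged by visible cell precipitation.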

A short description of series [3]: H+/Na+ transport assay of bead-derived peptides (one-point).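 Also: relative to parent gramicidin A activity set to 1.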 In kind it is biochemical. The conditions noted are these: bead-derived peptide solution, EYPC/EYPG LUVs. More on the design: key: relative activity; mean of two control wells = 1.00. Put shortly: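 One-point screen: peptide + pyranine-loaded LUVs, 30 min RT with vortexing, 96-well. Read-out is fluorescence intensity scaled as 100 × (Ix – I0)/(Imax – I0). Imax from Triton X-100, I0 from untreated vesicles, and the mean of the two control wells is set to 1.00.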

Consider `CC(C)C[C@@H](NC(=O)[C@H](Cc1c[nH]c2ccccc12)NC(=O)[C@@H](CC(C)C)NC(=O)[C@H](Cc1c[nH]c2ccccc12)NC(=O)[C@@H](CC(C)C)NC(=O)[C@H](Cc1c[nH]c2ccccc12)NC(=O)[C@@H](CC(C)C)NC(=O)[C@@H](NC(=O)[C@H](NC(=O)[C@H](C)NC(=O)[C@H](NC(=O)[C@H](C)NC(=O)CNC(=O)[C@@H](NC=O)C(C)C)C(C)C)C(C)C)C(C)C)C(=O)N[C@@H](Cc1c[nH]c2ccccc12)C(=O)NCCO` [compound 7864] (For-VGA[dV]A[dV]V[dL]W[dL]W[dL]W[dL]W-NHCH2CH2OH), for which the cell viability/% in series [1] was 10.8%. Also, the antibacterial activity entry in series [2] was “+”. The “H+/Na+ transport activity normalized against the value of 1 (1.00)” value (“H+/Na+ transport activity normalized” for short) in series [3] amounted to 1.01.
For `CC(C)C[C@@H](NC(=O)[C@H](C)NC(=O)[C@H](NC(=O)[C@H](C)NC(=O)CNC(=O)[C@@H](NC=O)C(C)C)[C@H](C)O)C(=O)N[C@H](C(=O)N[C@H](CC(C)C)C(=O)N[C@@H](Cc1c[nH]c2ccccc12)C(=O)N[C@@H](C(=O)N[C@@H](Cc1c[nH]c2ccccc12)C(=O)N[C@H](CC(C)C)C(=O)N[C@@H](Cc1c[nH]c2ccccc12)C(=O)N[C@H](CC(C)C)C(=O)N[C@@H](Cc1c[nH]c2ccccc12)C(=O)NCCO)C(C)C)C(C)C` [compound 7890] (For-VGA[dT]A[dL]V[dL]W[dV]W[dL]W[dL]W-NHCH2CH2OH) the same measures were 100.0%, “-” and 1.11.
For `CC(C)C[C@@H](NC(=O)[C@H](C)NC(=O)[C@H](NC(=O)[C@H](C)NC(=O)CNC(=O)[C@@H](NC=O)C(C)C)[C@H](C)O)C(=O)N[C@H](C(=O)N[C@H](CC(C)C)C(=O)N[C@@H](Cc1c[nH]c2ccccc12)C(=O)N[C@H](CC(C)C)C(=O)N[C@@H](Cc1c[nH]c2ccccc12)C(=O)N[C@H](CC(C)C)C(=O)N[C@@H](Cc1c[nH]c2ccccc12)C(=O)N[C@H](CC(C)C)C(=O)N[C@@H](Cc1c[nH]c2ccccc12)C(=O)NCCO)C(C)C` [compound 7905] (For-VGA[dT]A[dL]V[dL]W[dL]W[dL]W[dL]W-NHCH2CH2OH) the same measures were 100.0%, “-” and 1.10.
Taken in the same sequence, the figures for `CC(C)C[C@@H](NC(=O)[C@H](C)NC(=O)CNC(=O)[C@@H](NC=O)C(C)C)C(=O)N[C@@H](C)C(=O)N[C@@H](C(=O)N[C@H](C(=O)N[C@H](CC(C)C)C(=O)N[C@@H](Cc1c[nH]c2ccccc12)C(=O)N[C@@H](C(=O)N[C@@H](Cc1c[nH]c2ccccc12)C(=O)N[C@@H](C(=O)N[C@@H](Cc1c[nH]c2ccccc12)C(=O)N[C@@H](C(=O)N[C@@H](Cc1c[nH]c2ccccc12)C(=O)NCCO)C(C)C)C(C)C)C(C)C)C(C)C)C(C)C` [compound 7938] (For-VGA[dL]A[dV]V[dL]W[dV]W[dV]W[dV]W-NHCH2CH2OH) were 17.4%, “+” and 1.10.
Consider `CNC(=O)C[C@@H](NC(=O)[C@H](Cc1c[nH]c2ccccc12)NC(=O)[C@H](NC(=O)[C@H](Cc1c[nH]c2ccccc12)NC(=O)[C@@H](CC(C)C)NC(=O)[C@H](Cc1c[nH]c2ccccc12)NC(=O)[C@H](NC(=O)[C@@H](NC(=O)[C@H](NC(=O)[C@H](C)NC(=O)[C@@H](CC(C)C)NC(=O)[C@H](C)NC(=O)CNC(=O)[C@@H](NC=O)C(C)C)C(C)C)C(C)C)C(C)C)C(C)C)C(=O)N[C@@H](Cc1c[nH]c2ccccc12)C(=O)NCCO` [compound 7948] (For-VGA[dL]A[dV]V[dV]W[dL]W[dV]W[dD](NHMe)W-NHCH2CH2OH), for which the cell viability/% in series [1] was found to be 100.0%. Moreover, the antibacterial activity result in series [2] is reported as “-”. Besides, in series [3], the “H+/Na+ transport activity normalized” value was found to be 1.04.
On to `CNC(=O)C[C@@H](NC(=O)[C@@H](NC(=O)[C@H](NC(=O)[C@H](C)NC(=O)[C@H](NC(=O)[C@H](C)NC(=O)CNC(=O)[C@@H](NC=O)C(C)C)C(C)C)C(C)C)C(C)C)C(=O)N[C@@H](Cc1c[nH]c2ccccc12)C(=O)N[C@H](CC(C)C)C(=O)N[C@@H](Cc1c[nH]c2ccccc12)C(=O)N[C@@H](C(=O)N[C@@H](Cc1c[nH]c2ccccc12)C(=O)N[C@@H](C(=O)N[C@@H](Cc1c[nH]c2ccccc12)C(=O)NCCO)C(C)C)C(C)C` [compound 8057] (For-VGA[dV]A[dV]V[dD](NHMe)W[dL]W[dV]W[dV]W-NHCH2CH2OH), for which the cell viability/% in series [1] worked out at 100.0%. Moreover, the antibacterial activity entry in series [2] was “-”. The “H+/Na+ transport activity normalized” value in series [3] is on record as 1.13.
For `CNC(=O)C[C@@H](NC(=O)[C@@H](NC(=O)[C@@H](CC(C)C)NC(=O)[C@H](C)NC(=O)[C@@H](CC(C)C)NC(=O)[C@H](C)NC(=O)CNC(=O)[C@@H](NC=O)C(C)C)C(C)C)C(=O)N[C@@H](Cc1c[nH]c2ccccc12)C(=O)N[C@H](CC(C)C)C(=O)N[C@@H](Cc1c[nH]c2ccccc12)C(=O)N[C@H](CC(C)C)C(=O)N[C@@H](Cc1c[nH]c2ccccc12)C(=O)N[C@H](CC(C)C)C(=O)N[C@@H](Cc1c[nH]c2ccccc12)C(=O)NCCO` [compound 8061] (For-VGA[dL]A[dL]V[dD](NHMe)W[dL]W[dL]W[dL]W-NHCH2CH2OH) the same measures were 100.0%, “-” and 1.05.
Taken in the same sequence, the figures for `CNC(=O)C[C@@H](NC(=O)[C@H](C)NC(=O)[C@@H](CC(C)C)NC(=O)[C@H](C)NC(=O)CNC(=O)[C@@H](NC=O)C(C)C)C(=O)N[C@H](C(=O)N[C@@H](C(=O)N[C@@H](Cc1c[nH]c2ccccc12)C(=O)N[C@H](CC(C)C)C(=O)N[C@@H](Cc1c[nH]c2ccccc12)C(=O)N[C@@H](C(=O)N[C@@H](Cc1c[nH]c2ccccc12)C(=O)N[C@H](CC(C)C)C(=O)N[C@@H](Cc1c[nH]c2ccccc12)C(=O)NCCO)C(C)C)C(C)C)C(C)C` [compound 8265] (For-VGA[dL]A[dD](NHMe)V[dV]W[dL]W[dV]W[dL]W-NHCH2CH2OH) were 68.3%, “-” and 1.12.
For `CC(C)C[C@@H](NC(=O)[C@H](C)NC(=O)CNC(=O)[C@@H](NC=O)C(C)C)C(=O)N[C@@H](C)C(=O)N[C@H](CC(C)C)C(=O)N[C@H](C(=O)N[C@@H](C(=O)N[C@@H](Cc1c[nH]c2ccccc12)C(=O)N[C@@H](C(=O)N[C@@H](Cc1c[nH]c2ccccc12)C(=O)N[C@H](CC(C)C)C(=O)N[C@@H](Cc1c[nH]c2ccccc12)C(=O)N[C@H](CC(C)C)C(=O)N[C@@H](Cc1c[nH]c2ccccc12)C(=O)NCCO)[C@H](C)O)C(C)C)C(C)C` [compound 8342] (For-VGA[dL]A[dL]V[dV]W[dT]W[dL]W[dL]W-NHCH2CH2OH) the same measures were 54.5%, “-” and 1.00.
In series [1], `CC(C)C[C@@H](NC(=O)[C@H](C)NC(=O)[C@H](NC(=O)[C@H](C)NC(=O)CNC(=O)[C@@H](NC=O)C(C)C)C(C)C)C(=O)N[C@H](C(=O)N[C@@H](C(=O)N[C@@H](Cc1c[nH]c2ccccc12)C(=O)N[C@@H](C(=O)N[C@@H](Cc1c[nH]c2ccccc12)C(=O)N[C@H](CC(C)C)C(=O)N[C@@H](Cc1c[nH]c2ccccc12)C(=O)N[C@H](CC(C)C)C(=O)N[C@@H](Cc1c[nH]c2ccccc12)C(=O)NCCO)[C@H](C)O)[C@H](C)O)C(C)C` [compound 8374] (For-VGA[dV]A[dL]V[dT]W[dT]W[dL]W[dL]W-NHCH2CH2OH) had a cell viability/% of 66.4%. Moreover, the antibacterial activity result in series [2] is reported as “-”. The “H+/Na+ transport activity normalized” value in series [3] was 1.02.
For `CNC(=O)C[C@@H](NC(=O)[C@H](Cc1c[nH]c2ccccc12)NC(=O)[C@@H](CC(C)C)NC(=O)[C@H](Cc1c[nH]c2ccccc12)NC(=O)[C@H](NC(=O)[C@H](Cc1c[nH]c2ccccc12)NC(=O)[C@@H](CC(C)C)NC(=O)[C@@H](NC(=O)[C@H](NC(=O)[C@H](C)NC(=O)[C@H](NC(=O)[C@H](C)NC(=O)CNC(=O)[C@@H](NC=O)C(C)C)C(C)C)C(C)C)C(C)C)C(C)C)C(=O)N[C@@H](Cc1c[nH]c2ccccc12)C(=O)NCCO` [compound 8400] (For-VGA[dV]A[dV]V[dL]W[dV]W[dL]W[dD](NHMe)W-NHCH2CH2OH) the same measures were 34.4%, “-” and 1.01.
Taken in the same sequence, the figures for `CNC(=O)C[C@@H](NC(=O)[C@@H](NC(=O)[C@@H](CC(C)C)NC(=O)[C@H](C)NC(=O)[C@H](NC(=O)[C@H](C)NC(=O)CNC(=O)[C@@H](NC=O)C(C)C)C(C)C)C(C)C)C(=O)N[C@@H](Cc1c[nH]c2ccccc12)C(=O)N[C@@H](C(=O)N[C@@H](Cc1c[nH]c2ccccc12)C(=O)N[C@@H](C(=O)N[C@@H](Cc1c[nH]c2ccccc12)C(=O)N[C@@H](C(=O)N[C@@H](Cc1c[nH]c2ccccc12)C(=O)NCCO)C(C)C)C(C)C)C(C)C` [compound 8459] (For-VGA[dV]A[dL]V[dD](NHMe)W[dV]W[dV]W[dV]W-NHCH2CH2OH) were 47.5%, “-” and 1.03.
